{"source": "paper PMC6151740", "about": "“Pharmacokinetics, Tissue Distribution, and Elimination of Three Active Alkaloids in Rats after Oral Administration of the Effective Fraction of Alkaloids from Ramulus Mori, an Innovative Hypoglycemic Agent” (Molecules : A Journal of Synthetic Chemistry and Natural …, 2017)", "key": {"[1]": {"assay": "Plasma pharmacokinetic study in rats after oral and intravenous administration of SZ–A or purified DNJ", "format": "in vivo, rat", "conditions": "for MRT last: read-out: MRT0–t; for MRT inf: read-out: MRT0–∞; for bioavailability: plasma, read-out: F (oral absolute bioavailability)", "protocol": "The oral dosing solutions used for all animal studies were prepared by dissolving in water. Thirty rats weighed 250–270 g after acclimation were randomly divided into six groups of five animals each. For oral administration, rats were treated with SZ–A (40, 200, 1000 mg/kg) or purified DNJ (15 mg/kg) dissolve in water. Blood samples (about 0.25 mL) were collected via the postorbital venous plexus veins under ether anesthesia into heparinized polythene tubes before dosing and at 0.08, 0.17, 0.33, 0.50, 1, 2, 3, 4, 6, 8, 12, 24 and 36 h after drug administration. For intravenous dosing, rats were given SZ–A (4 mg/kg) or DNJ (1.5 mg/kg) dissolved in normal saline solution through the tail vein. Then blood samples were collected at 0.03, 0.08, 0.17, 0.33, 0.67, 1, 2, 4, 6, 8, 12, 24, and 36 h under similar conditions. Considering the physical limit of blood in rats, during the process of the pharmacokinetic experiment, each rat was received 0.25 mL of sterile isotonic saline at each time point after blood sampling for compensation of body fluid loss, and the blood loss was also corrected at a definite degree. Plasma was separated by centrifuging the blood samples at 1660× g for 5 min and stored at −20 °C until LC-MS/MS analysis. Data fitting and pharmacokinetic parameter estimates were carried out using non–compartmental analysis via WinNonlin Software (version 6.1, Pharsight Corporation, Mountain View, CA, USA). F was calculated according to the formula: F (%) = (AUC oral/AUC i.v.) × (dose i.v./dose oral) × 100.\nThe plasma, feces, urine, and bile samples (100 μL) were added to 1 μL of Tris aqueous solution (2 M), 10 μL of IS working solution (2 μg/mL), and 190 μL methanol–acetonitrile (25:75, v/v). The incubation supernatant samples (300 μL) were mixed with 1 μL Tris aqueous solution (2 M) and 10 μL of IS working solution (2 μg/mL). All mixtures were vortexed for 30 s followed by centrifugation at 18,880× g for 5 min, twice.\nBriefly, the LC-MS/MS instrument consisted of a 1260 HPLC system (Agilent, Santa Clara, CA, USA) and API4000 triple quadrupole mass spectrometer (Applied Biosystems Sciex, Toronto, ON, Canada) with an electrospray ionization (ESI) source and Analyst software (version 1.5.2, Applied Biosystems Sciex, Toronto, ON, Canada) for data acquisition and processing. DNJ, FGM, DAB, and IS were separated in a Xbridge amide™ column (3.5 μm, 4.6 mm × 150 mm; Waters, Milford, MA, USA) with a gradient mobile phase of acetonitrile-water (0.1% ammonium hydroxide) at a flow rate of 0.7 mL/min. An ESI source was used in the positive ion mode. The optimized mass spectrometric condition was as follows: ion spray voltage, 5500 V; collision gas, 6 psi; curtain gas, 20 psi; ion source gas 1 (GS1), 45 psi; ion source gas 2 (GS2), 45 psi; temperature, 450 °C. The multiple reaction monitoring (MRM) transitions of DNJ, FGM, DAB, and IS were m/z 164.0→110.1 (declustering potential (DP) 50 V, collision energy (CE) 22 V, collision cell exit potential (CXP) 10 V), 148.0→112.1 (DP 66 V, CE 21 V, CXP 10 V), 134.0→98.0 (DP 60 V, CE 20 V, CXP 10 V) and 208.0→146.1 (DP 50 V, CE 27 V, CXP 10 V), respectively."}, "[2]": {"assay": "Tissue distribution in rats after oral SZ–A", "format": "in vivo", "conditions": "Sprague-Dawley, pancreas, rat, SZ–A 40 mg/kg p.o., 0.25, 0.5 and 2 h, n = 3, read-out: tissue to plasma ratio (T/P) in the pancreas", "protocol": "Three groups of rats (three rats in each group) were administered with a single oral dose of SZ–A at 40 mg/kg. Rats each were sacrificed and various tissues, including liver, kidney, pancreas, stomach, duodenum, jejunum, ileum, cecum, colon, and the content in the gastrointestinal tract were collected at 0.25, 0.5, and 2 h time points. One additional rat was sacrificed predose to provide control tissues for analysis. After removing blood or content and weighing, each sample was individually homogenized with normal saline solution (1:3, w/v for tissue; 1:9, w/v for content) using a tissue homogenizer (Polytron PT1600E, Kinematica, Luzern, Switzerland) and stored at −20 °C until LC-MS/MS analysis."}, "[3]": {"assay": "In vitro incubation of SZ–A with rat intestinal homogenate", "format": "in vitro ADME", "conditions": "SZ–A 10.87 μg/mL, with/without NADPH generation, 37 °C, 120 min", "protocol": "Pooled rat intestinal homogenate from six males was prepared using a tissue homogenizer with ice cold normal saline solution at a proportion of 1:3 (w/v). SZ–A was incubated with rat intestinal homogenate (5 mg protein/mL) with/without a NADPH-generating system (0.011 M β-NADP, 0.1 M glucose 6-phosphate, 10 U/mL glucose-6-phosphate dehydrogenase) in a 37 °C water bath for 120 min. Meanwhile, caecal content was collected and mixed with anaerobic medium (1:30, w/v) to prepare the cultures under nitrogen atmosphere at 37 °C for 120 min. SZ–A and rat caecal microbiota cultures were incubated at a total volume of 200 μL with the boiled samples as the negative control, concomitantly. The incubation was stopped at 2 h by adding two volumes of methanol–acetonitrile (1:3, v/v). Triplicate supernatants were taken by centrifugation at 18,880× g for 5 min and stored at −20 °C until LC-MS/MS analysis. The results were expressed as the percentage of the concentration at 0 min."}, "[4]": {"conditions": "Sprague-Dawley, iv, rat plasma, SZ–A 4 mg/kg i.v., n = 5"}, "[5]": {"conditions": "Sprague-Dawley, po, rat plasma, SZ–A 40 mg/kg p.o., n = 5"}, "[6]": {"conditions": "Sprague-Dawley, po, rat plasma, SZ–A 200 mg/kg p.o., n = 5"}, "[7]": {"conditions": "Sprague-Dawley, po, rat plasma, SZ–A 1000 mg/kg p.o., n = 5"}, "[8]": {"conditions": "rat plasma, SZ–A 40 mg/kg p.o., n = 5"}, "[9]": {"conditions": "rat plasma, SZ–A 200 mg/kg p.o., n = 5"}, "[10]": {"conditions": "rat plasma, SZ–A 1000 mg/kg p.o., n = 5"}}, "note": "Where two headings read alike, the source gives them in different places."}
{"smiles": "OC[C@H]1NC[C@@H](O)[C@@H]1O", "note": "[DAB, 1,4-dideoxy-1,4-imino-D-arabinitol]", "values": [{"measurement": "AUC(0-inf)", "setting": "[1]; [4]", "result": "129 ± 20.1", "unit": "ng·h/mL"}, {"measurement": "AUC(0-t)", "setting": "[1]; [4]", "result": "124 ± 20.8", "unit": "ng·h/mL"}, {"measurement": "Cmax", "setting": "[1]; [4]", "result": "625 ± 183", "unit": "ng/mL"}, {"measurement": "Tmax", "setting": "[1]; [4]", "result": 0.033, "unit": "h"}, {"measurement": "half-life", "setting": "[1]; [4]", "result": "0.18 ± 0.03", "unit": "h"}, {"measurement": "clearance", "setting": "[1]; Sprague-Dawley, iv, rat plasma, SZ–A 4 mg/kg i.v., n = 5, read-out: CLz (converted)", "result": 25.6, "unit": "mL/min/kg"}, {"measurement": "MRT last", "setting": "[1]; [4]", "result": "0.18 ± 0.04", "unit": "h"}, {"measurement": "MRT inf", "setting": "[1]; [4]", "result": "0.21 ± 0.05", "unit": "h"}, {"measurement": "Vd", "setting": "[1]; Sprague-Dawley, iv, rat plasma, SZ–A 4 mg/kg i.v., n = 5, read-out: Vd", "result": "0.401 ± 0.0408", "unit": "L/kg"}, {"measurement": "bioavailability", "setting": "[1]; Sprague-Dawley, po, rat, SZ–A 40 mg/kg p.o. vs SZ–A 4 mg/kg i.v.", "result": 78.2, "unit": "%"}, {"measurement": "bioavailability", "setting": "[1]; Sprague-Dawley, po, rat, SZ–A 200 mg/kg p.o. vs SZ–A 4 mg/kg i.v.", "result": 56.6, "unit": "%"}, {"measurement": "bioavailability", "setting": "[1]; Sprague-Dawley, po, rat, SZ–A 1000 mg/kg p.o. vs SZ–A 4 mg/kg i.v.", "result": 40.1, "unit": "%"}, {"measurement": "AUC(0-inf)", "setting": "[1]; [5]", "result": "978 ± 140", "unit": "ng·h/mL"}, {"measurement": "AUC(0-t)", "setting": "[1]; [5]", "result": "969 ± 147", "unit": "ng·h/mL"}, {"measurement": "Cmax", "setting": "[1]; [5]", "result": "708 ± 171", "unit": "ng/mL"}, {"measurement": "Tmax", "setting": "[1]; [5]", "result": "0.67 ± 0.29", "unit": "h"}, {"measurement": "half-life", "setting": "[1]; [5]", "result": "1.22 ± 0.16", "unit": "h"}, {"measurement": "MRT last", "setting": "[1]; [5]", "result": "1.32 ± 0.18", "unit": "h"}, {"measurement": "MRT inf", "setting": "[1]; [5]", "result": "1.42 ± 0.25", "unit": "h"}, {"measurement": "AUC(0-inf)", "setting": "[1]; [6]", "result": "3560 ± 729", "unit": "ng·h/mL"}, {"measurement": "AUC(0-t)", "setting": "[1]; [6]", "result": "3510 ± 716", "unit": "ng·h/mL"}, {"measurement": "Cmax", "setting": "[1]; [6]", "result": "2000 ± 656", "unit": "ng/mL"}, {"measurement": "Tmax", "setting": "[1]; [6]", "result": "0.57 ± 0.09", "unit": "h"}, {"measurement": "half-life", "setting": "[1]; [6]", "result": "1.38 ± 0.23", "unit": "h"}, {"measurement": "MRT last", "setting": "[1]; [6]", "result": "1.95 ± 0.35", "unit": "h"}, {"measurement": "MRT inf", "setting": "[1]; [6]", "result": "2.09 ± 0.29", "unit": "h"}, {"measurement": "AUC(0-inf)", "setting": "[1]; [7]", "result": 12900, "unit": "ng·h/mL"}, {"measurement": "AUC(0-t)", "setting": "[1]; [7]", "result": 12400, "unit": "ng·h/mL"}, {"measurement": "Tmax", "setting": "[1]; [7]", "result": "0.47 ± 0.14", "unit": "h"}, {"measurement": "half-life", "setting": "[1]; [7]", "result": "2.38 ± 0.97", "unit": "h"}, {"measurement": "MRT last", "setting": "[1]; [7]", "result": "4.09 ± 1.19", "unit": "h"}, {"measurement": "MRT inf", "setting": "[1]; [7]", "result": "4.66 ± 1.52", "unit": "h"}, {"measurement": "CLz", "setting": "[1]; [8]", "result": "33.188 ± 4.977", "unit": "mL/min/kg"}, {"measurement": "Vd", "setting": "[1]; [8]", "result": "3.5486 ± 0.9901", "unit": "L/kg"}, {"measurement": "CLz", "setting": "[1]; [9]", "result": "46.928 ± 9.39", "unit": "mL/min/kg"}, {"measurement": "Vd", "setting": "[1]; [9]", "result": "5.4724 ± 0.5717", "unit": "L/kg"}, {"measurement": "CLz", "setting": "[1]; [10]", "result": "65.433 ± 14.71", "unit": "mL/min/kg"}, {"measurement": "Vd", "setting": "[1]; [10]", "result": "13,892.2 ± 7160.0 mL/kg"}, {"measurement": "time to reach maximum plasma concentration (Cmax)", "setting": "[1]; rat, after oral administration of SZ–A (40, 200, 1000 mg/kg), upper bound over doses", "result": "≤ 0.67", "unit": "h"}, {"measurement": "Kp", "setting": "[2]", "result": "0.09 to 0.59"}, {"measurement": "amount of alkaloid after incubation in rat intestinal homogenate", "setting": "[3]", "result": "not changed significantly"}]}
